According to patent US8003666B2, “Hydrate for medical purposes” (priority 2006, dated 2011):
Converted amounts (≈) assume the structure as drawn.

System: Mycobacterium tuberculosis (bacteria resistant to quinolone)
Assay: microbe, parasite or virus in culture
Type: cell-based

Row | Compound | MIC (strain 1 (QR-3)) [mg/L] | MIC (strain 2 (QR-6)) [mg/L] | MIC (strain 3 (QR-1)) [mg/L] | MIC (strain 4 (QR-9)) [mg/L] | MIC (strain MDR 1) [mg/L] | MIC (strain MDR 3) [mg/L] | MIC (strain MDR 4) [mg/L] | MIC (strain MDR 5) [mg/L] | MIC (strain MDR 7) [mg/L] | MIC (strain MDR 9) [mg/L] | MIC (strain MDR 12) [mg/L] | MIC (strain s 1) [mg/L]
1 | COc1c(N2CC3(CC3)[C@](C)(N)C2)c(F)cc2c(=O)c(C(=O)O)cn([C@@H]3C[C@@H]3F)c12 [Hemihydrate, 7-[(7S)-7-Amino-7-methyl-5-azaspiro[2.4]heptan-5-yl]-6-fluoro-1-[(1R,2S)-2-fluorocyclopropyl]-8-methoxy-1,4-dihydro-4-oxoquinoline-3-carboxylic acid hemihydrate] | 0.125 | 0.5 | 0.25 | 0.25 | 0.125 | 0.125 | 0.25 | 0.5 | 0.125 | 0.125 | 0.125 | 1
2 | CO[C@H]1/C=C/O[C@@]2(C)Oc3c(C)c(O)c4c(O)c(c(/C=N/N5CCN(C)CC5)c(O)c4c3C2=O)NC(=O)/C(C)=C\C=C\[C@H](C)[C@H](O)[C@@H](C)[C@@H](O)[C@@H](C)[C@H](OC(C)=O)[C@@H]1C [RFP, rifampicin] | > 128 | > 128 | 128 (≈ 156 µM) | > 128 | 16 (≈ 19.4 µM) | 128 (≈ 156 µM) | 64 (≈ 77.8 µM) | 32 (≈ 38.9 µM) | > 128 | 128 (≈ 156 µM) | 128 (≈ 156 µM) | 16 (≈ 19.4 µM)
